Laboratory results from ChEMBL document CHEMBL3351539, “"On water" expedient synthesis of 3-indolyl-3-hydroxy oxindole derivatives and their anticancer activity in vitro” (Eur J Med Chem, 2014).
In brackets after ≈: the same amount, converted by molar mass.

test system: not listed separately; experiment: Cytotoxicity against human U937 cells assessed as growth inhibition after 24 hrs by MTT assay; details: U-937, 24 h

Row | Structure (SMILES) | IC50
1 | O=C1Nc2ccc(F)cc2C1(O)c1c[nH]c2ccccc12 (stereo unspecified) | 43.7 mg/L (≈ 155 µM)
2 | O=C1N(Cc2ccccc2)c2ccccc2C1(O)c1c[nH]c2ccc(Br)cc12 (stereo unspecified) | 17.1 mg/L (≈ 39.4 µM)
3 | O=C1N(Cc2ccccc2Cl)c2ccc(Cl)cc2C1(O)c1c[nH]c2ccccc12 (stereo unspecified) | 4.89 mg/L (≈ 11.6 µM)
4 | Cc1ccc2[nH]cc(C3(O)C(=O)Nc4ccc(F)cc43)c2c1 (stereo unspecified) | 35.5 mg/L (≈ 120 µM)
5 | O=C1N(Cc2ccccc2Cl)c2ccccc2C1(O)c1c[nH]c2ccc(Br)cc12 (stereo unspecified) | 7.16 mg/L (≈ 15.3 µM)
6 | O=C1Nc2ccc(Br)cc2C1(O)c1c[nH]c2ccc(Br)cc12 (stereo unspecified) | 43.3 mg/L (≈ 103 µM)
7 | O=C1Nc2ccc(Cl)cc2C1(O)c1c[nH]c2ccccc12 (stereo unspecified) | 19.8 mg/L (≈ 66.3 µM)
8 | COc1ccc2[nH]cc(C3(O)C(=O)N(Cc4ccccc4Cl)c4ccccc43)c2c1 (stereo unspecified) | 7.6 mg/L (≈ 18.1 µM)
9 | O=C1N(Cc2ccccc2Cl)c2ccccc2C1(O)c1c[nH]c2ccccc12 (stereo unspecified) | 15 mg/L (≈ 38.5 µM)
10 | COc1cc([C@@H]2c3cc4c(cc3[C@@H](O[C@@H]3O[C@@H]5CO[C@@H](C)O[C@H]5[C@H](O)[C@H]3O)[C@H]3COC(=O)[C@H]23)OCO4)cc(OC)c1O [ETOPOSIDE] | 6.14 mg/L (≈ 10.4 µM)

test system: THP-1; experiment: Cytotoxicity against human THP1 cells assessed as growth inhibition after 24 hrs by MTT assay; details: THP-1, 24 h

Row | Structure (SMILES) | IC50
11 | COc1ccc2[nH]cc(C3(O)C(=O)Nc4ccc(I)cc43)c2c1 (stereo unspecified) | 69.2 mg/L (≈ 165 µM)
12 | O=C1Nc2ccc(F)cc2C1(O)c1c[nH]c2ccc(Br)cc12 (stereo unspecified) | 76 mg/L (≈ 210 µM)
13 | O=C1Nc2c(Cl)cccc2C1(O)c1c[nH]c2ccccc12 (stereo unspecified) | 86.1 mg/L (≈ 288 µM)
14 | O=C1N(Cc2ccccc2)c2ccccc2C1(O)c1c[nH]c2ccc(Br)cc12 (stereo unspecified) | 14.2 mg/L (≈ 32.7 µM)
15 | O=C1N(Cc2ccccc2Cl)c2ccc(Cl)cc2C1(O)c1c[nH]c2ccccc12 (stereo unspecified) | 7.01 mg/L (≈ 16.6 µM)
16 | O=C1Nc2ccc(I)cc2C1(O)c1c[nH]c2ccc(F)cc12 (stereo unspecified) | 62.4 mg/L (≈ 153 µM)
17 | O=C1N(Cc2ccccc2Cl)c2ccccc2C1(O)c1c[nH]c2ccc(Br)cc12 (stereo unspecified) | 7.37 mg/L (≈ 15.8 µM)
18 | O=C1Nc2ccc(Br)cc2C1(O)c1c[nH]c2ccc(Br)cc12 (stereo unspecified) | 86.1 mg/L (≈ 204 µM)
19 | COc1ccc2[nH]cc(C3(O)C(=O)N(Cc4ccccc4Cl)c4ccccc43)c2c1 (stereo unspecified) | 5.6 mg/L (≈ 13.4 µM)
20 | O=C1N(Cc2ccccc2Cl)c2ccccc2C1(O)c1c[nH]c2ccccc12 (stereo unspecified) | 6.97 mg/L (≈ 17.9 µM)

test system: A549; experiment: Cytotoxicity against human A549 cells assessed as growth inhibition after 24 hrs by MTT assay; details: A549, 24 h

Row | Structure (SMILES) | IC50
21 | O=C1N(Cc2ccccc2)c2ccccc2C1(O)c1c[nH]c2ccc(Br)cc12 (stereo unspecified) | 25.1 mg/L (≈ 57.9 µM)
22 | O=C1N(Cc2ccccc2Cl)c2ccc(Cl)cc2C1(O)c1c[nH]c2ccccc12 (stereo unspecified) | 15.8 mg/L (≈ 37.2 µM)
23 | O=C1Nc2ccc(I)cc2C1(O)c1c[nH]c2ccc(F)cc12 (stereo unspecified) | 43.7 mg/L (≈ 107 µM)
24 | O=C1N(Cc2ccccc2Cl)c2ccccc2C1(O)c1c[nH]c2ccc(Br)cc12 (stereo unspecified) | 16.2 mg/L (≈ 34.5 µM)
25 | O=C1Nc2ccc(Br)cc2C1(O)c1c[nH]c2ccc(Br)cc12 (stereo unspecified) | 25.1 mg/L (≈ 59.5 µM)
26 | O=C1Nc2ccc(OC(F)(F)F)cc2C1(O)c1c[nH]c2ccc(Br)cc12 (stereo unspecified) | 13 mg/L (≈ 30.4 µM)
27 | COc1ccc2[nH]cc(C3(O)C(=O)N(Cc4ccccc4Cl)c4ccccc43)c2c1 (stereo unspecified) | 33.1 mg/L (≈ 79 µM)
28 | O=C1N(Cc2ccccc2Cl)c2ccccc2C1(O)c1c[nH]c2ccccc12 (stereo unspecified) | 28.1 mg/L (≈ 72.4 µM)
29 | COc1cc([C@@H]2c3cc4c(cc3[C@@H](O[C@@H]3O[C@@H]5CO[C@@H](C)O[C@H]5[C@H](O)[C@H]3O)[C@H]3COC(=O)[C@H]23)OCO4)cc(OC)c1O [ETOPOSIDE] | 10.7 mg/L (≈ 18.2 µM)

test system: MCF7; experiment: Cytotoxicity against human MCF7 cells assessed as growth inhibition after 24 hrs by MTT assay; details: MCF7, 24 h

Row | Structure (SMILES) | IC50
30 | CN1C(=O)C(O)(c2c[nH]c3ccccc23)c2ccccc21 (stereo unspecified) | 49 mg/L (≈ 176 µM)
31 | O=C1N(Cc2ccccc2)c2ccccc2C1(O)c1c[nH]c2ccc(Br)cc12 (stereo unspecified) | 31.2 mg/L (≈ 72.1 µM)
32 | O=C1N(Cc2ccccc2Cl)c2ccc(Cl)cc2C1(O)c1c[nH]c2ccccc12 (stereo unspecified) | 20.6 mg/L (≈ 48.7 µM)
33 | O=C1N(Cc2ccccc2Cl)c2ccccc2C1(O)c1c[nH]c2ccc(Br)cc12 (stereo unspecified) | 22.3 mg/L (≈ 47.7 µM)
34 | O=C1Nc2ccc(Br)cc2C1(O)c1c[nH]c2ccc(Br)cc12 (stereo unspecified) | 68.7 mg/L (≈ 163 µM)
35 | O=C1Nc2ccc(OC(F)(F)F)cc2C1(O)c1c[nH]c2ccc(Br)cc12 (stereo unspecified) | 5.47 mg/L (≈ 12.8 µM)
36 | COc1ccc2[nH]cc(C3(O)C(=O)N(Cc4ccccc4Cl)c4ccccc43)c2c1 (stereo unspecified) | 13.4 mg/L (≈ 32.1 µM)
37 | O=C1N(Cc2ccccc2Cl)c2ccccc2C1(O)c1c[nH]c2ccccc12 (stereo unspecified) | 39.3 mg/L (≈ 101 µM)
38 | COc1cc([C@@H]2c3cc4c(cc3[C@@H](O[C@@H]3O[C@@H]5CO[C@@H](C)O[C@H]5[C@H](O)[C@H]3O)[C@H]3COC(=O)[C@H]23)OCO4)cc(OC)c1O [ETOPOSIDE] | 17.8 mg/L (≈ 30.2 µM)

test system: MCF7; experiment: Ratio of etoposide IC50 to compound IC50 for human MCF7 cells assessed as growth inhibition after 24 hrs by MTT assay; details: not given

Row | Structure (SMILES) | Ratio IC50
39 | O=C1Nc2ccc(OC(F)(F)F)cc2C1(O)c1c[nH]c2ccc(Br)cc12 (stereo unspecified) | 1
40 | COc1ccc2[nH]cc(C3(O)C(=O)N(Cc4ccccc4Cl)c4ccccc43)c2c1 (stereo unspecified) | 1

test system: U-937; experiment: Ratio of etoposide IC50 to compound IC50 for human U937 cells assessed as growth inhibition after 24 hrs by MTT assay; details: not given

Row | Structure (SMILES) | Ratio IC50
41 | O=C1N(Cc2ccccc2Cl)c2ccc(Cl)cc2C1(O)c1c[nH]c2ccccc12 (stereo unspecified) | 0.5
